# Measured values published in PubChem BioAssay (NCI).
#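 Interpolation was linear, between the two tested concentrations surrounding the appropriate level; five concentrations were tested over 48 hours in 96-well plates. GI50 marks 50% less growth. TGI is the concentration that stops growth completely.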
# Key:
# Assay in all cases: NCI-60 cell line screen, 48 h
# UO-31 renal = system: UO-31 renal
# SK-MEL-2 melanoma = system: SK-MEL-2 melanoma
# NCI-H23 lung = system: NCI-H23 lung
# MDA-MB-231 breast = system: MDA-MB-231 breast
# 786-0 renal = system: 786-0 renal
# MDA-MB-435 = system: MDA-MB-435
# ACHN renal = system: ACHN renal
# T-47D breast = system: T-47D breast
# CCRF-CEM leukemia = system: CCRF-CEM leukemia
# SNB-75 CNS = system: SNB-75 CNS
# OVCAR-5 ovarian = system: OVCAR-5 ovarian
# KM12 colon = system: KM12 colon
# DU-145 prostate = system: DU-145 prostate
# SN12C renal = system: SN12C renal
# NCI-H522 lung = system: NCI-H522 lung
# MCF7 breast = system: MCF7 breast
# SR leukemia = system: SR leukemia
# A549 NSCLC = system: A549 NSCLC
# IGROV1 ovarian = system: IGROV1 ovarian
# HOP-92 NSCLC = system: HOP-92 NSCLC
# K-562 leukemia = system: K-562 leukemia
# OVCAR-8 ovarian = system: OVCAR-8 ovarian
# SF-539 CNS = system: SF-539 CNS
# A498 renal = system: A498 renal
# LOX IMVI melanoma = system: LOX IMVI melanoma
# OVCAR-4 ovarian = system: OVCAR-4 ovarian
# SK-OV-3 ovarian = system: SK-OV-3 ovarian
# SNB-19 CNS = system: SNB-19 CNS
# M14 melanoma = system: M14 melanoma
smiles,measurement,setting,value
COC(=O)[C@H](Cc1cn(C)cn1)NC(=O)[C@H](C)NC(=O)Nc1cc(C(F)(F)F)cc(C(F)(F)F)c1,GI50,UO-31 renal,> 10 µM
same,TGI,UO-31 renal,> 10 µM
same,GI50,SK-MEL-2 melanoma,> 10 µM
same,TGI,SK-MEL-2 melanoma,> 10 µM
same,GI50,NCI-H23 lung,> 10 µM
same,TGI,NCI-H23 lung,> 10 µM
same,GI50,MDA-MB-231 breast,> 10 µM
same,TGI,MDA-MB-231 breast,> 10 µM
same,GI50,786-0 renal,> 10 µM
same,TGI,786-0 renal,> 10 µM
same,GI50,MDA-MB-435,> 10 µM
same,TGI,MDA-MB-435,> 10 µM
same,GI50,ACHN renal,> 10 µM
same,TGI,ACHN renal,> 10 µM
same,GI50,T-47D breast,7.58 µM
same,TGI,T-47D breast,> 10 µM
same,GI50,CCRF-CEM leukemia,> 10 µM
same,TGI,CCRF-CEM leukemia,> 10 µM
same,GI50,SNB-75 CNS,> 10 µM
same,TGI,SNB-75 CNS,> 10 µM
same,GI50,OVCAR-5 ovarian,> 10 µM
same,TGI,OVCAR-5 ovarian,> 10 µM
same,GI50,KM12 colon,> 10 µM
same,TGI,KM12 colon,> 10 µM
same,GI50,DU-145 prostate,> 10 µM
same,TGI,DU-145 prostate,> 10 µM
same,GI50,SN12C renal,> 10 µM
same,TGI,SN12C renal,> 10 µM
same,GI50,NCI-H522 lung,> 10 µM
same,TGI,NCI-H522 lung,> 10 µM
same,GI50,MCF7 breast,> 10 µM
same,TGI,MCF7 breast,> 10 µM
same,GI50,SR leukemia,> 10 µM
same,TGI,SR leukemia,> 10 µM
same,GI50,A549 NSCLC,> 10 µM
same,TGI,A549 NSCLC,> 10 µM
same,GI50,IGROV1 ovarian,> 10 µM
same,TGI,IGROV1 ovarian,> 10 µM
same,GI50,HOP-92 NSCLC,> 10 µM
same,TGI,HOP-92 NSCLC,> 10 µM
same,GI50,K-562 leukemia,> 10 µM
same,TGI,K-562 leukemia,> 10 µM
same,GI50,OVCAR-8 ovarian,> 10 µM
same,TGI,OVCAR-8 ovarian,> 10 µM
same,GI50,SF-539 CNS,> 10 µM
same,TGI,SF-539 CNS,> 10 µM
same,GI50,A498 renal,> 10 µM
same,TGI,A498 renal,> 10 µM
same,GI50,LOX IMVI melanoma,> 10 µM
same,TGI,LOX IMVI melanoma,> 10 µM
same,GI50,OVCAR-4 ovarian,> 10 µM
same,TGI,OVCAR-4 ovarian,> 10 µM
same,GI50,SK-OV-3 ovarian,> 10 µM
same,TGI,SK-OV-3 ovarian,> 10 µM
same,GI50,SNB-19 CNS,> 10 µM
same,TGI,SNB-19 CNS,> 10 µM
same,GI50,M14 melanoma,> 10 µM
